Converted amounts (≈) assume the structure as drawn.
Experiments:
Staphylococcus aureus [1] = assay: Antimicrobial activity against Staphylococcus aureus Newman; assay type: functional
Sortase A = target: T1, Sortase A (Staphylococcus aureus, UniProt Q9S446); assay: Inhibition of SrtA
T1 sequence (Q9S446 whole entry): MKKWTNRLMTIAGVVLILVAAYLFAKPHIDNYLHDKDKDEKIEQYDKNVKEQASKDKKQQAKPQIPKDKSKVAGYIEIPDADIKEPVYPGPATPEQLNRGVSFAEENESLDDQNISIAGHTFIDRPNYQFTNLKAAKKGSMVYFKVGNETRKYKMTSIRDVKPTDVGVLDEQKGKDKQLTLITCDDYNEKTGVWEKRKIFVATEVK

Staphylococcus aureus [2] = assay: Inhibition of Staphylococcus aureus SKM12 adhesion to fibronectin in relative to wild type; assay type: functional; parameters: scale not given: the % may be the effect or the level left
Staphylococcus aureus [3] = assay: Inhibition of Staphylococcus aureus Newman adhesion to fibronectin; assay type: functional, organism-based

Structure (SMILES) | MIC (Staphylococcus aureus [1]) | IC50 (Sortase A) | Activity (Staphylococcus aureus [2]) | Activity (Staphylococcus aureus [3])
COc1cc2ccnc3c2c(c1OC)NC=C3 [AAPTAMINE] | > 200 µg/mL | 103 µM | – | –
COc1ccc2cc3[n+](cc2c1OC)CCc1cc2c(cc1-3)OCO2.[Cl-] [BERBERINE CHLORIDE] | 100 µg/mL | 23.4 µM | – | –
Oc1cc2ccnc3c2c(c1O)NC=C3 [DEMETHYLAAPTAMINE] | 25 µg/mL (≈ 125 µM) | 85.9 µM | – | –
COC1=Cc2ccnc3ccnc(c23)C1=O [DEMETHYLOXY-AAPTAMINE] | 25 µg/mL (≈ 118 µM) | 94.7 µM | – | –
COc1cc2ccnc3c2c(c1O)N(C)C=C3 [ISOAAPTAMINE] | 50 µg/mL (≈ 219 µM) | 16.2 µM | 99% | Dose-dependent effect

— ChEMBL document CHEMBL1149701, “Aaptamines as sortase A inhibitors from the tropical sponge Aaptos aaptos” (Bioorg Med Chem Lett, 2007)
